Bridges are numbered along the chain shown (N, C = ends). Roman numbers before positions name the chains, in order. [ ]: non-standard residue; d: D form. NMeR = CN[C@@H](CCCNC(=N)N)C(=O)O; Api = NC1(C(=O)O)CCNCC1; Dab = NCC[C@H](N)C(=O)O
Test system: E. coli isolate CHP-04-002EC
Assay: MIC against the E. coli test isolate
Assay type: cell-based
Conditions: stated as 1×MIC
Experimental: Growth inhibition assays were performed using the Gram negative E. coli isolate CHP-04-002EC obtained from Laboratory Specialists, Inc. (Westlake, Ohio). […] Untreated bacterial culture served as growth control. At 4, 8, 12 and 24 hrs post-application, the cultures were serially diluted, plated and allowed to grow overnight. Colony forming units (CFU) were determined by counting the number of newly grown colonies and multiplying by the dilution factor.

I: H-[Api]DKGSYLPRPTPPRPIYN[NMeR]N[Dab]-NH2 / II: H-[Api]DKGSYLPRPTPPRPIYN[NMeR]N (amide I:21-II:C) [CHP-105]
MIC: 64 µg/mL

From US20090253633A1, “Novel Combinations of DNAK Inhibitors With Known Antibacterial Agents” (priority 2005, published 2009)
